{"source": "patent US12351652B2", "about": "“Hemagglutinin-binding peptide” (priority 2019, dated 2025)", "system": "influenza virus A/Puerto Rico/8/34 (H1N1)", "parameters": "species or system BALB/cA Jcl [SPF] mice", "settings": "mouse, in vivo, iv"}
{"smiles": "CCC(CC)[C@H](NC(C)=O)[C@@H]1[C@H](O)[C@@H](C(=O)O)C[C@H]1N=C(N)N", "note": "[peramivir, reference compound]", "values": [{"measurement": "survival rate", "result": 20, "unit": "%"}]}
